The values that follow come from patent US4983632A, “Use of gamma-hydroxybutyric acid salts for preparing pharmaceutical compositions for use in the treatment of alcoholism, and the compositions obtained” (Laboratorio Farmaceutico C.T. S.r.l., priority 1988, dated 1991).

Where a name gives a salt, the structure may show the parent alone.

In series [1] the test system is alcohol-preferring rats. The series can be described thus: Inhibition of voluntary ethanol consumption by alcohol-preferring rats, PTT-01 (Table 1). It counts as in vivo, rat. The settings on record: mean of 10 animals. An excerpt: Each value represents the mean of 10 aminals.
For series [2] the following is noted: cited from earlier work.
The subject of series [3] is aldehyde-dehydrogenase enzyme. The settings on record: assumed competition with NAD on active sites; cited from earlier work.
Series [4] deals with patients. The settings on record: cited from earlier work.
For series [5], the system named is craving for ethyl alcohol in alcoholics. The series can be described thus: Clinical study, craving for ethyl alcohol in alcoholics (overall). Format: in vivo, man. The settings on record: overall clinical conclusion. From the text:
To the end of demostrating the efficacy of the pharmaceutical compositions according to the invention we have furthermore carried out some […] tests to evaluate the efficacy of GHB salts in obtaining and mantaining abstention from alcoholic drinks in man; we synthetically report herein below the methods followed and the results obtained in one of such studies.
(§1) Finally, to the end of proving that the craving for drinks containing ethyl alcohol ("craving" for short) can be modified by pharmacological treatment with the compositions according to the present invention, we have selected 40 alcohol-dependent individuals according to the Diagnostic and Statistic Manual, 3rd edition Revised (DMS-III R) classification.
(§2) […] a NaGHB treatment at the doses of 0.05 g/kg/day in two administrations was given for an average period of 4-6 weeks.
(§3) In order to obtain a further experimental confirmation of the results obtained in the open test, we have carried out a test in double-blind.
(§4) 80 individuals, alcohol dependent according to DSM III-R, were divided in two groups by simple randomization and treated with NaGHB or with a placebo at the doses of 0.05 g/kg/day divided in two administrations for a total of 60 days.

Series [6] relates to alcohol-preferring rats. Kind of series: Voluntary consumption of ethanol in alcohol-preferring rats, NaGHB (Table 2). Format: in vivo, male Wistar rats. The settings on record: for Ethanol consumption, treatment: three consecutive days. The protocol: The trial was carried out on male Wistar rats of initial weight 130-160 g. The alcohol-preferring rats were chosen from a heterogeneous rat population having an average age of 40 days. The animals were caged individually and kept in an environment at a temperature of 24° C., with light from 8.00 to 20.00 hous. The method used to select alcohol-preferring rats was to allow the animals to choose from two bottles, one containing water and the other containing an increasingly strong ethanol solution. The tapwater and the ethanol solution were administered from graduated bottles (Richter), their positon being changed irregularly to prevent the habit of drinking from the same bottle. Starting from a 3% ethanol solution, the concentration was increased by 1% every day to a maximum of 10%. This ethanol concentration was used for the whole trial period. The experiments were carried out only on rats by whom more than 60% of the liquid drunk had been 10% ethanol. The thus chosen rats imbibed a constant mean ethanol quantity of 3.2±0.4 g/rat/day. The weight of the animals during this period was 380±35 g, and therefore the consumption of absolute alcohol per rat per kg of body weight was 8±0.54 g.
Different randomly chosen groups of these animals were respectively treated with increasing doses of the sodium salt of gamma-hydroxy butyric acid (NaGHB) wheas the control group received the same volume of physiological solution (10 ml/kg). The quantity of ethanol and water imbibed was recorded before, during and after treatment at the same time each day, and the treatment was repeated for three consecutive days.
The results of this trial are given in Table 2 which compares ethanol consumption in g/kg before, during and after treatment with NaGHB at three different doses of 150, 300 and 450 mg/kg.

Series [7] concerns the target T1, alcohol dehydrogenase (ADH) (Rattus norvegicus, UniProt P06757).
T1 construct: measured using the surnatant of rat liver homogenate; from tissue; host or cells: rat liver homogenate supernatant
The series can be described thus: ADH activity in supernatant of rat liver homogenate. Format: biochemical. The settings on record: for ADH activity: mean±M.S.E. of three experiments. The protocol: (§5) The ADH and ALDH activity were measured using the surnatant of rat liver homogenate. The ADH activity was measured by oxidising the ethanol to acetaldehyde in the presence of NAD in tubes containing NaGHB.
(§6) The formation of reduced nicotine-adenine dinucleotide (NADH) was determined by spectrometry measurement at 340 nm and the ALDH activity was determined in the same manner. In addition, pyrazole (0.03M) was added to the reaction mixture to inhibit ADH and propionaldehyde was added as substrate. Each value is the mean±M.S.E. of three experiments.

In series [8] the test system is aldehyde dehydrogenase (ALDH). Kind of series: ALDH activity in supernatant of rat liver homogenate. It counts as biochemical. The settings on record: for ALDH activity: pyrazole 0.03M, propionaldehyde substrate, mean±M.S.E. of three experiments. As to the method: as §5, §6
A short description of series [9]: Acute toxicity for oral administration in the mouse. The settings on record: in vivo; for mortality: read-out: Mortality (M+F). It counts as in vivo.
For series [10], the system named is mouse. Described as above. It counts as in vivo.
A short description of series [11]: Acute toxicity for intraperitoneal administration in the mouse. It counts as in vivo. The settings on record: in vivo, ip; for mortality: read-out: Mortality (M + F).
Series [12] deals with mouse. Described as above. Format: in vivo.
Series [13] deals with rat. Kind of series: Chronic toxicity tests on the rat. It counts as in vivo.
In series [14] the test system is craving for drinks containing ethyl alcohol. Kind of series: Craving in alcohol-dependent individuals, open test. Format: in vivo, man.
From the text: (§7) To this end we have prepared a questionnaire entitled "Restrained Drinking and Alcohol Craving Scale" (RDAGS) and we have examined whether said questionnaire was capable of differentiating between alcoholics and non-alcoholics.
as §1, §2
For comparison, a group of 40 alcoholics was examined, using the same criteria as for the NaGHB treatment groups; to this group a psychological and/or socio-rehabilitation technique was applied, with no specific pharmacological support (polyvitamins only).

Series [15] has the same test system. The series can be described thus: Craving in alcohol-dependent individuals, double-blind test. It counts as in vivo, man.
From the text: as §7, §3, §4

The mark [16] stands for this setting: 0.05 g/kg/day in two administrations, 60 days, vs placebo.

T1 sequence (P06757 whole entry): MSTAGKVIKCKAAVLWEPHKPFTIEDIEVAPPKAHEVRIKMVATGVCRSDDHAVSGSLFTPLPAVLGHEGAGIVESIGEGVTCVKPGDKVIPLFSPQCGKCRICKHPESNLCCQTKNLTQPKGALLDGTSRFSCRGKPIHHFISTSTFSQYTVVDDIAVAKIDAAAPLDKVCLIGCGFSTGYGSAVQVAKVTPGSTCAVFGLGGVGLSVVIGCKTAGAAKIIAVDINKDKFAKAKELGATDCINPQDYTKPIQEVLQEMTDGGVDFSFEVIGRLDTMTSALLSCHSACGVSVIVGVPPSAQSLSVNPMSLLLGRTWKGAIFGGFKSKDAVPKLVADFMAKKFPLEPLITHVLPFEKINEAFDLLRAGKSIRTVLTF

As to `CCCCC(=O)NC1CCOC1=O` (stereo not drawn) [PTT-01, α-n-butyl carbonylamino-gamma-butyro lactone], the “Ethanol consumption, pretreatment” value in series [1] (PTT-01 100 mg/kg group) was determined as 7.21 ± 0.40 g/kg; in series [1] (PTT-01 200 mg/kg group), 7.70 ± 0.28 g/kg; in series [1] (PTT-01 300 mg/kg group) it was 7.08 ± 0.19 g/kg. Further, the results for the “Ethanol consumption, post-treatment” value in series [1] (PTT-01 100 mg/kg), in series [1] (PTT-01 200 mg/kg) and in series [1] (PTT-01 300 mg/kg) were 7.24 ± 0.44 g/kg, 7.36 ± 0.51 g/kg and 6.98 ± 0.15 g/kg, respectively. In addition, the “Ethanol consumption, treatment” value in series [1] (PTT-01 100 mg/kg) stood at 7.03 ± 0.38 g/kg; in [1] (PTT-01 200 mg/kg), 7.51 ± 0.41 g/kg; in [1] (PTT-01 300 mg/kg), 7.00 ± 0.46 g/kg.

With `CCN(CC)C(=S)SSC(=S)N(CC)CC` [disulfiram], the “acetaldehyde level in the blood, times greater than with alcohol alone” value in [2] (alcohol after disulfiram pretreatment vs same dose of alcohol only) is recorded as 5-10 times. Moreover, in series [2] (in the presence of disulfiram), the acetaldehyde concentration result is “acetaldehyde concentration increases”. Also, in [3], the acetaldehyde oxidation rate entry was “reducing the acetaldehyde oxidation rate”. Also, the “toxicity when administered alone” value in series [4] (alone, therapeutic doses) is recorded as “not toxic, although not completely innocuous”. The side effects result in series [4] (disulfiram itself) is “can cause acneform eruptions, allergic dermatitis, urticaria, tiredness, fatique, tremors, reduced sexual power, gastric disturbances and digestive disturbances”. Moreover, the “adverse reactions following disulfiram treatment” value in series [4] (following treatment, discussed with ingestion of alcohol) is “cases of respiratory depression, cardiovascular collapse, cardiac arrhythmia, myocardium infarct, and sudden or unexpected death have occurred”. Moreover, the “refusal of alcoholic drinks” value in series [4] (patients treated) is recorded as “refuse alcoholic drinks”.

Regarding `O=C(O)CCCO` [GHB, gamma-hydroxybutyric acid], the “suppression of craving for ethyl alcohol in alcoholics” value in series [5] was “surprising activity of GHB in suppressing the craving for ethyl alcohol in alcoholics”.

As for `O=C(O)CCCO` [NaGHB, sodium salt of gamma-hydroxybutyric acid], the “Ethanol consumption, post-treatment” value in series [6] (NaGHB 150 mg/kg) was found to be 7.02 ± 0.44 g/kg; in series [6] (NaGHB 300 mg/kg) it was 5.88 ± 0.35 g/kg; in [6] (NaGHB 450 mg/kg), 5.10 ± 0.48 g/kg. The “Ethanol consumption, pretreatment” value in series [6] (NaGHB 150 mg/kg group) is 7.71 ± 0.51 g/kg; in series [6] (NaGHB 300 mg/kg group) it was 7.48 ± 0.35 g/kg; in series [6] (NaGHB 450 mg/kg group) it was 7.82 ± 0.46 g/kg. Moreover, the results for the “Ethanol consumption, treatment” value in [6] (NaGHB 150 mg/kg), in series [6] (NaGHB 300 mg/kg) and in series [6] (NaGHB 450 mg/kg) were 6.11 ± 0.21 g/kg, 3.43 ± 0.23 g/kg and 2.12 ± 0.11 g/kg, respectively. In series [6] (daily administration, 450 mg/kg), the “consumption of ethyl alcohol relative to consumption before treatment” value was “below 50%”. The total imbibed fluid result in series [6] (during treatment) is “no significant reduction in total imbibed fluid”. For the same compound, in series [6] (five days after interruption), the “Alcohol consumption and preference for alcohol after interrupting administration” value is on record as “returned to their pre-treatment levels five days after interrupting the administration of the medicament”. For the same compound, the ADH activity in series [7] (10^-3 molar) is given as 0.0239 ± 0.0015 D.O/min/mg prot; in series [7] (10^-4 molar) it was 0.0240 ± 0.0018 D.O/min/mg prot; in [7] (10^-5 molar), 0.0245 ± 0.0018 D.O/min/mg prot. The “inhibition of alcohol dehydrogenase (ADH)” value in [7] (up to 10^-3 M) was “does not inhibit”. In [8], the acetaldehyde metabolism result is “without in any way altering acetaldehyde metabolism”. For the same compound, the ALDH activity in series [8] (10^-3 molar) is listed as 0.0132 ± 0.0009 D.O/min/mg prot; in [8] (10^-4 molar), 0.0138 ± 0.0011 D.O/min/mg prot; in series [8] (10^-5 molar), 0.0135 ± 0.0010 D.O/min/mg prot. Moreover, in series [8] (up to 10^-3 M), the “inhibition of aldehyde dehydrogenase (ALDH)” value is recorded as “does not inhibit”. The mortality in [9] (10000 mg/kg, 10 g/kg) came to 0%; in [9] (11000 mg/kg, 11 g/kg), 33.3%; in [9] (13000 mg/kg, 13 g/kg), 66.6%; in series [9] (15000 mg/kg, 15 g/kg) it was 100%; in series [11] (2500 mg/kg, 2.5 g/kg), 0%; in [11] (3000 mg/kg, 3 g/kg), 33.3%. For the same compound, the mortality is 66.7% in series [11] (3500 mg/kg, 3.5 g/kg) and 100% in [11] (4000 mg/kg, 4 g/kg). Also, the 50% lethal dose (LD50) in series [9] (Table 4, 95% CL 10.95-13.17) stood at 12000 mg/kg; in series [10] it was 12014 mg/kg; in series [11] (Table 5, 95% CL 2.92-3.521), 3210 mg/kg; in [12], 3210 mg/kg. Moreover, the “toxic action at organ level” value in series [13] was “No toxic action at organ level was observed”. The craving reduction result in series [14] (0.05 g/kg/day in two administrations, 4-6 weeks) is on record as “statistically highly significant craving reduction”. Moreover, the “Craving decrease induced by NaGHB” value in series [14] (40 alcohol-dependents in open test (Table 6)) and in [15] (40 alcohol dependents in double blind test (Table 6)) was “Efficient” throughout. For the same compound, the drop-out percentage result in series [15] (setting [16]) is “lower, statistically significant, drop-out percentage”. For the same compound, the “improvement of the craving” value in [15] (setting [16]) is “notable improvement of the craving”.
